In patent publication US20110230471A1, “BENZONAPHTYRIDINE COMPOUNDS AS INHIBITORS OF AUTOTAXIN” (MERCK PATENT GESELLSCHAFT MIT BESCHRANKTER HAFTUNG, priority 2008, published 2011) one finds IC50 data, which are given here for 20 molecules.

Each structure is given as a SMILES string.

In this assay the target is T1, recombinant autotaxin (Homo sapiens, UniProt Q13822).
T1 construct: made in house; host or cells: Hi5 insect cells (baculovirus)
Kind of assay: Autotaxin test (enzyme test), Amplex Red. The assay is classed as biochemical. Conditions: Autotaxin inhibition (enzyme test), TABLE 2 (B compounds); substrate LPC 75 μM. The protocol: The autotaxin activity is measured indirectly using Amplex Red reagent. Amplex Red is measured here as fluorogenic indicator for the H2O2 formed. In detail, autotaxin converts the substrate lysophosphatidylcholine (LPC) into phosphocholine and lysophosphatidylic acid (LPA). After this reaction, the phosphocholine is reacted with alkaline phosphatase to give inorganic phosphate and choline. In the next step, choline is oxidised by choline oxidase to give betaine, with formation of H2O2. H2O2 reacts with Amplex Red reagent in the presence of peroxidase (horseradish peroxidase) in a 1:1 stoichiometry and forms the highly fluorescent resorufin. The fluorescence is measured in a reaction-dependent kinetic mode in order that fluorescent signals from possible other fluorescent substances which are not involved in the reaction can be corrected out.
1.5 μl of a standard solution or of the test substances (substances with the name A(n))in individual concentrations dissolved in 20 mM Hepes pH 7.2 with a maximum of 7.7% of DMSO are pre-incubated together with 10 μl (16 ng) of highly purified recombinant autotaxin in a black microtitre plate provided with 384 wells at 22° C. for 30 min. The reaction is then initiated by addition of 5 μl of L-α-lysophosphatidylcholine (LPC), where the final concentration of LPC is 75 μM. The mixture is incubated at 37° C. for 90 min. After the incubation, Amplex Red reagent, peroxidase (horseradish peroxidase) and choline oxidase is added, and the fluorescence is immediately measured at 612 nm with excitation of 485 nm in a “Tecan Ultra multimode” reader. The activity of autotaxin is calculated indirectly via detection of the H2O2 formed.
• Microtitre plate: PS microplate, 384 wells, small volume, black Corning, Cat#3677 • Protein: recombinant autotaxin (Baculovirale Hi5 Expression) • Substrate: L-α-lysophosphatidylcholine (chicken egg)); Avanti Polar Lipids # 830071 P • Standard: C14 LPA, Avanti Polar Lipids, Cat# 857120P • Detection reagent: Amplex Red reagent; Invitrogen # A12222; dissolved in 1.923 ml of DMSO peroxidase type VI-A (horseradish) from Sigma # P6782; dissolved in 7.45 ml of test buffer, choline oxidase; Sigma # C5896; dissolved in 2.47 ml of test buffer • Detection reagent mix: 1:100 dilution of Amplex Red reagent in test buffer • Test buffer: 200 mM Tris HCl, Merck, Cat # 1.08219, pH 7.9, 0.1% of BSA, lipid-free, Roche Cat#775835
Take `COc1ccc(Cl)cc1NCCN1CCc2nc3ccccc3c(C(=O)N3CCN(CCO)CC3)c2C1` [Compound B14, {2-[2-(5-Chloro-2-methoxyphenylamino)ethyl]-1,2,3,4-tetrahydrobenzo-[b][1,6]naphthyridin-10-yl}-[4-(2-hydroxyethyl)piperazin-1-yl]methanone]: the IC50 is greater than 1 µM. As to `CSc1ccc(Cl)cc1NC(=O)CN1CCc2nc3ccccc3c(C(=O)N3CCN(CCO)CC3)c2C1` [Compound B17, N-(5-Chloro-2-methylsulfanylphenyl)-2-{10-[4-(2-hydroxyethyl)piperazine-1-carbonyl]-3,4-dihydro-1H-benzo[b][1,6]naphthyridin-2-yl}acetamide], the 50% inhibitory concentration (IC50) is greater than 1 µM. Take `COc1ccc(Cl)cc1-c1nc(CN2CCc3nc4ccccc4c(C(=O)NC4CCN(C)CC4)c3C2)no1` [Compound B20, N-(1-Methylpiperidin-4-yl)-2-[5-(5-chloro-2-methoxyphenyl)-1,2,4-oxadiazol-3-ylmethyl]-1,2,3,4-tetrahydrobenzo[b][1,6]naphthyridine-10-carboxamide]: the IC50 was greater than 1 µM.

For the molecule `O=C(CN1CCc2nc3ccccc3c(C(=O)N3CCN(CCO)CC3)c2C1)Nc1cccc(-c2ccccc2)c1` [Compound B21, N-Biphenyl-3-yl-2-{10-[4-(2-hydroxyethyl)piperazine-1-carbonyl]-3,4-dihydro-1H-benzo[b][1,6]naphthyridin-2-yl}acetamide], the IC50 is greater than 1 µM. `COc1ccc(Cl)cc1NC(=O)CN1CCc2nc3ccccc3c(C(=O)Nc3ccc4[nH]nnc4c3)c2C1` [Compound B22, N-(1H-Benzotriazol-5-yl)-2-[(5-chloro-2-methoxyphenylcarbamoyl)methyl]-1,2,3,4-tetrahydrobenzo[b][1,6]naphthyridine-10-carboxamide]: the IC50 lay in the range of 0.1 to 1 µM. For the molecule `COc1c(F)cc(Br)cc1NC(=O)CN1CCc2nc3ccccc3c(C(=O)N3CCOCC3)c2C1` [Compound B24, N-(5-Bromo-3-fluoro-2-methoxyphenyl)-2-[10-(morpholine-4-carbonyl)-3,4-dihydro-1H-benzo[b][1,6]naphthyridin-2-yl]acetamide], the concentration for half-maximal inhibition (IC50) was 0.1 to 1 µM. For the molecule `COc1ccc(Cl)cc1-c1nnc(CN2CCc3nc4ccccc4c(C(=O)NCCN(C)C)c3C2)o1` [Compound B29, N-(2-Dimethylaminoethyl)-2-[5-(5-chloro-2-methoxyphenyl)-1,3,4-oxadiazol-2-ylmethyl]-1,2,3,4-tetrahydrobenzo[b][1,6]naphthyridine-10-carboxamide], the IC50 was greater than 1 µM. As for `COc1ccc(Cl)cc1-c1nnc(CN2CCc3nc4ccccc4c(C(=O)NCC[N+](C)(C)Cc4nnc(-c5cc(Cl)ccc5OC)o4)c3C2)o1` [Compound B30, [5-(5-Chloro-2-methoxyphenyl)-1,3,4-oxadiazol-2-ylmethyl]-[2-({2-[5-(5-chloro-2-methoxyphenyl)-1,3,4-oxadiazol-2-ylmethyl]-1,2,3,4-tetrahydrobenzo[b][1,6]naphthyridine-10-carbonyl}amino)ethyl]dimethylammonium], the IC50 is greater than 1 µM. Under `COCCNC(=O)c1c2c(nc3ccccc13)CCN(Cc1nnc(-c3cc(Cl)ccc3OC)o1)C2` [Compound B31, N-(2-Methoxyethyl)-2-[5-(5-chloro-2-methoxyphenyl)-1,3,4-oxadiazol-2-yl-methyl]-1,2,3,4-tetrahydrobenzo[b][1,6]naphthyridine-10-carboxamide] stands greater than 1 µM; under `CCNC(=O)c1c2c(nc3ccccc13)CCN(Cc1nnc(-c3cc(Cl)ccc3OC)o1)C2` [Compound B32, N-Ethyl-2-[5-(5-chloro-2-methoxyphenyl)-1,3,4-oxadiazol-2-ylmethyl]-1,2,3,4-tetrahydrobenzo[b][1,6]naphthyridine-10-carboxamide], greater than 1 µM; under `COc1ccc(Cl)cc1-c1nnc(CN2CCc3nc4ccccc4c(C(=O)NC4CCN(C)CC4)c3C2)o1` [Compound B33, N-(1-Methylpiperidin-4-yl)-2-[5-(5-chloro-2-methoxyphenyl)-1,3,4-oxadiazol-2-ylmethyl]-1,2,3,4-tetrahydrobenzo[b][1,6]naphthyridine-10-carboxamide], greater than 1 µM. In the case of `COc1c(F)cc(-c2ccc(N)cc2)cc1NC(=O)CN1CCc2nc3ccccc3c(C(=O)N3CCOCC3)c2C1` [Compound B35, N-(4′-Amino-5-fluoro-4-methoxybiphenyl-3-yl)-2-[10-(morpholine-4-carbonyl)-3,4-dihydro-1H-benzo[b][1,6]naphthyridin-2-yl]acetamide], the concentration for half-maximal inhibition (IC50) is greater than 1 µM.

Take `CN1CCC(NC(=O)c2c3c(nc4ccccc24)CCN(CCC(=O)Nc2cc(Cl)ccc2N)C3)CC1` [Compound B37]: the 50% inhibitory concentration (IC50) is greater than 1 µM. In the case of `COc1ccc(Cl)cc1/C=C/C(=O)N1CCc2nc3ccccc3c(C(=O)NC3CCN(C)CC3)c2C1` [Compound B40, N-(1-Methylpiperidin-4-yl)-2-[(E)-3-(5-chloro-2-methoxyphenyl)acryloyl]-1,2,3,4-tetrahydrobenzo[b][1,6]naphthyridine-10-carboxamide], the IC50 is greater than 1 µM. `COc1ccc(Cl)cc1NC(=O)CN1CCc2nc3ccccc3c(C(=O)NCCF)c2C1` [Compound B42, N-(2-Fluoroethyl)-2-[(5-chloro-2-methoxyphenylcarbamoyl)methyl]-1,2,3,4-tetrahydrobenzo[b][1,6]naphthyridine-10-carboxamide]: the IC50 was greater than 1 µM. Regarding `COc1ccc(Cl)cc1NC(=O)CN1CCc2nc3ccccc3c(C(=O)NC3CCOCC3)c2C1` [Compound B43, N-(Tetrahydropyran-4-yl)-2-[(5-chloro-2-methoxyphenylcarbamoyl)methyl]-1,2,3,4-tetrahydrobenzo[b][1,6]naphthyridine-10-carboxamide], the half-inhibitory concentration (IC50) was 0.1 to 1 µM.

For the molecule `COc1ccc(Cl)cc1NC(=O)CN1CCc2nc3ccccc3c(C(=O)NC3CCCNC3=O)c2C1` (centres unmarked) [Compound B47, N-(2-Oxopiperidin-3-yl)-2-[(5-chloro-2-methoxyphenylcarbamoyl)methyl]-1,2,3,4-tetrahydrobenzo[b][1,6]naphthyridine-10-carboxamide], the IC50 is 0.1 to 1 µM. For `O=C(c1c2c(nc3ccccc13)CCN(Cc1ccnc(Cl)c1)C2)N1CCOCC1` [Compound B52, [2-(2-Chloropyridin-4-ylmethyl)-1,2,3,4-tetrahydrobenzo[b][1,6]naphthyridin-10-yl]morpholin-4-ylmethanone] the value was greater than 1 µM; for `COc1ccc(Cl)cc1NC(=O)CN1CCc2nc3ccccc3c(C(=O)NC3CCCNC3)c2C1` (centres unmarked) [Compound B53, N-Piperidin-3-yl-2-[(5-chloro-2-methoxyphenylcarbamoyl)methyl]-1,2,3,4-tetrahydrobenzo[b][1,6]naphthyridine-10-carboxamide], greater than 1 µM. For `CN1CCC(NC(=O)c2c3c(nc4ccccc24)CCN(Cc2ccc4c(Cl)cc(Cl)c(O)c4n2)C3)CC1` [Compound B57, N-(1-Methylpiperidin-4-yl)-2-(5,7-dichloro-8-hydroxyquinolin-2-ylmethyl)-1,2,3,4-tetrahydrobenzo[b][1,6]naphthyridine-10-carboxamide] the value was greater than 1 µM.
